Read-outs that look alike come from different tables or passages of the source.
How the values were obtained:
[1] = molecular target: T1, human orexin 2 receptor (Homo sapiens, UniProt O43614); test: Assay B: In vitro testing of OX2R potency: OX2R IP1 (HTRF, CHO-K1/hOX2 cells, Orexin A as agonist); assay type: cell-based; conditions: Orexin A 0.5 nM
T1 construct: stably expressing the full-length human orexin 2 receptor; expressed in transfected cells; host or cells: CHO-K1 (CHO-K1/hOX2), co-expressing aequorin
T1 sequence (O43614 1-444): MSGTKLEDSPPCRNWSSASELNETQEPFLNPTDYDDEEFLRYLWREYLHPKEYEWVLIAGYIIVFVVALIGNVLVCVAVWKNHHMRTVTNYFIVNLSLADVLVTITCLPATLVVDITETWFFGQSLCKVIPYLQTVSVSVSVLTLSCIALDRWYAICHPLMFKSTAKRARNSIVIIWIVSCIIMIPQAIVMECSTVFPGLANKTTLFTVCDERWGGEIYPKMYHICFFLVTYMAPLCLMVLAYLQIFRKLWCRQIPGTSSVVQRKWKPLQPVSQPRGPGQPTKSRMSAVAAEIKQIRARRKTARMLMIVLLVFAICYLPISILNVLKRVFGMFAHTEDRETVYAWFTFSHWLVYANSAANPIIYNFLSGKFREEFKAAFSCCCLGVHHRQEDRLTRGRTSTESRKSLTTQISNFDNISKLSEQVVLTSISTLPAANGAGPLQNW
Text: Activation of the orexin receptors expressed in cell lines results in an increase in intracellular IP3 concentration. IP1, a downstream metabolite of IP3, accumulates in cells following receptor activation and is stable in the presence of LiCl. Using Homogeneous Time-Resolved Fluorescence technology with Lumi4-Tb cryptate (commercially available from Cisbio Bioassay.) and a suitable fluorescence plate reader. […] Chem. Genomics 2009, 3, 22-32. This technique is used to characterize pharmacological modification of the orexin receptors.
B. In Vitro Testing of OX2R Potency: OX2R IP1
IP1 measurements are performed in CHO-K1 cells stably expressing the full-length human orexin 2 receptor and the aequorin photoprotein. Cells are cultivated in Ham's nutrient mixture F12 medium with 10% fetal calf serum, in a 37° C., 95% humidity and 5% CO2 incubator. The CHO-K1/hOX2 cell mass is expanded to larger cell numbers. The cells are obtained as frozen cells in cryo-vials and stored until use at −150° C. The viability of the cells after thawing is >90%. In preparation for the assay, 24 hours before the assay, the cells are thawed at 37° C. and immediately diluted with cell culture medium. After centrifugation, the cell pellet is resuspended in medium and then distributed into the assay plates with a density of 5000 cells/25 μL per well. The plates are incubated for one hour at room temperature to reduce edge effects before they are incubated for 24 hours at 37° C./5% CO2. Compounds are prepared by a 8-point serial dilution in DMSO and a final dilution step into assay buffer (HBSS with 20 mM HEPES, 0.1% BSA and 50 mM LiCl, pH 7.4) to ensure a final DMSO concentration of 1% in the assay.
On the day of the assay, cells in the plate are washed twice with 60 μL assay buffer (20 μL buffer remained in the wells after washing), followed by adding 5 μL per well of compounds diluted in assay buffer. After 15 minutes of incubation at room temperature 5 μL per well of Orexin A peptide (final concentration: 0.5 nM) dissolved in assay buffer is added to the assay plate. The assay plate is incubated for 60 minutes at 37° C. Then 5 μL per well of Anti-IP1-Cryptate Tb solution and 5 μL per well of IP1-d2 dilution are added to all well of the plate and the plate is incubated for a further 60 minutes light protected at room temperature. The emission at 615 nm and 665 nm (Excitation wavelength: 320 nm) are measured using an EnVision reader (PerkinElmer). The ratio between the emission at 665 nm and 615 is calculated by the reader.
8-point four parametric non-linear curve fitting and determination of IC50 values and Hill slopes is performed using a regular analysis software e.g. AssayExplorer (Accelrys). In order to establish an agonist concentration independent parameter, Kb values are calculated using the following equation: IC50/((2+(A/EC50)n)^1/n−1) (with A=concentration agonist, EC50=EC50 agonist, n=Hill slope agonist) (see P. Leff, I. G. Dougall, Trends Pharmacol. Sci. 1993, 14(4), 110-112).
Kb values from Assay A (OX1R) and Assay B (OX2R) can then provide a selectivity ratio which is independent of the agonist (Orexin A) concentration.

[2] = Assay C: Metabolic stability in human liver microsomes (Human MST); assay type: in vitro ADME; conditions: pooled human liver microsomes, pH 7.6; human liver microsomes 1 mg/mL, compound 1 μM, 37° C., NADPH; read-out: Human MST t1/2
Experimental: C. Assessment of Metabolic Stability in Human Liver Microsomes (Human MST)
The metabolic stability of the compounds according to the invention may be investigated as follows:
The metabolic degradation of the test compound is assayed at 37° C. with pooled human liver microsomes. The final incubation volume of 100 μL per time point contains TRIS buffer pH 7.6 at room temperature (0.1 M), MgCl2 (5 mM), microsomal protein (1 mg/mL) and the test compound at a final concentration of 1 μM. Following a short pre-incubation period at 37° C., the reactions are initiated by addition of beta-nicotinamide adenine dinucleotide phosphate, reduced form (NADPH, 1 mM), and terminated by transferring an aliquot into solvent after different time points. After centrifugation (10000 g, 5 min), an aliquot of the supernatant is assayed by LC-MS/MS for the amount of parent compound. The half-life (t1/2) is determined by the slope of the semi-logarithmic plot of the concentration-time profile.

[3] = molecular target: T2, human Orexin 1 receptor (Homo sapiens, UniProt O43613); test: Assay A: In vitro testing of OX1R potency: OX1R IP1 (HTRF, CHO-K1/hOX1 cells, Orexin A as agonist); assay type: cell-based; conditions: for Kb: read-out: OX1R Kb (Orexin A concentration used)
T2 construct: stably expressing the full-length human Orexin 1 receptor; expressed in transfected cells; host or cells: CHO-K1 (CHO-K1/hOX1), co-expressing aequorin
T2 sequence (O43613 1-425): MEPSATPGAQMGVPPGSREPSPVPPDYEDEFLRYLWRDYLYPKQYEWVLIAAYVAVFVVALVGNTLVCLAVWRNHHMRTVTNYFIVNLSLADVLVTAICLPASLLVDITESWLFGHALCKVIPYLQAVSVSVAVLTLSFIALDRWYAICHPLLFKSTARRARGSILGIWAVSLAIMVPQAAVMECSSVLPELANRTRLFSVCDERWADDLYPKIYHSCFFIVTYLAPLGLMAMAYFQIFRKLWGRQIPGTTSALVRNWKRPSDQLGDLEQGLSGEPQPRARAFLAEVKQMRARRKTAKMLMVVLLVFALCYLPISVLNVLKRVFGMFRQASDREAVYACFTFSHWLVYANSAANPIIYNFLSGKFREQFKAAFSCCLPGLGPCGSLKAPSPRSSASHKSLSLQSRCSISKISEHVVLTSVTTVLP

SMILES	Kb [1] [nM]	half-life at 1 μM [2] [min]	OX2R Kb/OX1R Kb ([3]; OX1R Kb at 0.5 nM Orexin A)	Kb ([3]; Orexin A 0.5 nM) [nM]	OX2R Kb/OX1R Kb ([3]; OX1R Kb at 50 nM Orexin A)	Kb ([3]; Orexin A 50 nM) [nM]	OX2R Kb/OX1R Kb ([3]; OX1R Kb at 0.5 nM and 50 nM Orexin A)	Kb ([3]; Orexin A 0.5 nM and 50 nM) [nM]
CC[C@@H](CNc1ccc(Cl)cn1)N(C)C(=O)c1cc(C)ccc1-n1nccn1 [Ex 1 in WO2016/034882, reference compound]	36	5	–	–	–	–	–	–
CC[C@@H](CNc1ccc(C(F)(F)F)cn1)N(C)C(=O)c1cc(Cl)ccc1-n1nccn1 [Ex 42 in WO2016/034882, reference compound]	229	7	–	–	–	–	–	–
CCN(C(=O)c1ccc(F)cc1-n1nccn1)[C@@H](C)COc1ccc(C(F)(F)F)cn1 [Example 1]	58	38	171	0.34	–	–	–	–
CCN(C(=O)c1cc(F)ccc1-n1nccn1)[C@@H](C)COc1ccc(C(F)(F)F)cn1 [Example 3]	44	62	–	–	157	0.28	–	–
CCN(C(=O)c1cc(F)c(F)cc1-n1nccn1)[C@@H](C)COc1ccc(C(F)(F)F)cn1 [Example 4]	138	61	276	0.5	187	0.74	–	–
CCN(C(=O)c1ccccc1-n1nccn1)[C@@H](C)COc1ccc(C(F)(F)F)cn1 [Example 10]	21	24	–	–	117	0.18	–	–
CCN(C(=O)c1cc(F)cc(F)c1-n1nccn1)[C@@H](C)COc1ccc(C(F)(F)F)cn1 [Example 13]	92	49	–	–	511	0.18	–	–
CCN(C(=O)c1ccc(F)cc1-c1nnc(C)o1)[C@@H](C)COc1ccc(C(F)(F)F)cn1 [Example 14]	2070	> 130	461	4.5	–	–	–	–
CCN(C(=O)c1cc(OC)ccc1-n1nccn1)[C@@H](C)COc1ccc(C(F)(F)F)cn1 [Example 15]	15	16	–	–	250	0.06	–	–
CCN(C(=O)c1cccc(F)c1-c1nnc(C)o1)[C@@H](C)COc1ccc(C(F)(F)F)cn1 [Example 18]	218	74	273	0.8	–	–	–	–
CCN(C(=O)c1cccc(C)c1-c1nnc(C)o1)[C@@H](C)COc1ccc(C(F)(F)F)cn1 [Example 20]	35	20	–	–	292	0.12	–	–
CCN(C(=O)c1ccccc1-c1nnc(C)o1)[C@@H](C)COc1ccc(C(F)(F)F)cn1 [Example 22]	202	84	217	0.93	168	1.2	–	–
CCN(C(=O)c1ccc(Cl)cc1-n1nccn1)[C@@H](C)COc1ccc(C(F)(F)F)cn1 [Example 26]	22	15	–	–	400	0.055	–	–
CCN(C(=O)c1ccc(F)cc1-n1nccn1)[C@@H](C)COc1ccc(Cl)cn1 [Example 28]	86	39	–	–	–	–	51	1.7
CCN(C(=O)c1cc(F)ccc1-n1nccn1)[C@@H](C)COc1ccc(Cl)cn1 [Example 29]	71	55	71	1	81	0.88	–	–
CCN(C(=O)c1cc(F)c(F)cc1-n1nccn1)[C@@H](C)COc1ccc(Cl)cn1 [Example 30]	160	52	70	2.3	–	–	–	–
CCN(C(=O)c1cc(F)cc(F)c1-n1nccn1)[C@@H](C)COc1ccc(Cl)cn1 [Example 32]	117	46	106	1.1	143	0.82	–	–
CCN(C(=O)c1cc(OC)ccc1-n1nccn1)[C@@H](C)COc1ccc(Cl)cn1 [Example 33]	33	20	–	–	236	0.14	–	–
CCN(C(=O)c1cccc(F)c1-c1nnc(C)o1)[C@@H](C)COc1ccc(Cl)cn1 [Example 36]	542	72	139	3.9	–	–	–	–
